# Results published in US20090325863A1, “Somatostatin analogs and IGF-I inhibition for breast cancer prevention” (priority 2008, published 2009).
# Values joined by “and” are separate entries in the source; they are usually repeats but may differ in a detail not shown here. Identical values can stand only once. “Also recorded” adds a separate entry of the source. Marks after values point to notes of the source that are not given here. *1 amine or outer side, *2 acyl side, *3 side chain or, on linkers, in order; H or OH if unused. Where a SMILES comes first, the peptide text is derived from it. Side-chain parts run from the residue outwards. [ ]: non-standard residue; d: D form. The star is where a group is joined. Ethylenediamine = C(CN[*:2])N[*:1]; Hyp = O=C(O)[C@@H]1C[C@@H](O)CN1; Phg = N[C@H](C(=O)O)c1ccccc1; CO = O=C([*:1])[*:2]; Bn = c1ccc(C*)cc1
# Assays:
# [1] = test system: mammary hyperplasia induced by hGH and E2; assay: Mammary hyperplasia model induced by hGH and E2, counts in histological sections; type: in vivo, rat; conditions: for Mild# (mild hyperplasia): GH + E2 control 4.2 ± 0.6, E2 1.9 ± 0.2; for Moderate# (moderate hyperplasia): GH + E2 control 5.0 ± 0.7, E2 0; for Florid# (florid hyperplasia): GH + E2 control 9.6 ± 0.1, E2 0; for Total# (total number of glands): hypophysectomized, oophorectomized female rats, hGH 600 μg + E2, 7 days, GH + E2 control 71.9 ± 5.4, E2 42.2 ± 1.4; for Florid#: GH + E2 control 10 ± 0.7
# Excerpt: To test whether SOM230, a drug that inhibits IGF-I action on the breast, was effective, we implemented a model of hyperplasia and then determined whether the hyperplasia could be inhibited by SOM230. We administered human growth hormone (600 mcg in alzet pumps) for a week, and gave this together with estradiol (an estrogen). At the end of 7 days florid hyperplasia developed. Mammary hyperplasia was modeled by treating hypophysectomized, oophorectomized female rats with high doses human growth hormone (hGH) (600 μg in Alzet pumps) and follicular phase concentrations of estradiol (E2) administered in silastic capsules for 7 days. In the absence of hGH, these animals would not undergo mammary development. In animals receiving E2 alone, there was virtually no hyperplasia. When hGH was added to E2 there were more glands (42.2±1.4 vs. 71.9±5.4, E2 vs. E2+hGH, respectively). There was no florid hyperplasia with E2 treatment. When hGH was given also, 26.6% of the glands were hyperplastic, with 50% of those being floridly hyperplastic, 7% moderate hyperplasia and 5.9% mild hyperplasia. […] This is shown in histological sections (FIG. 1), graphically (FIG. 2) and in tabular form below (TABLE 1).
# Background: Antiestrogens or aromatase inhibitors are used for breast cancer chemoprevention. These treatments cause unpleasant side effects including hot flashes and vaginal dryness. We have previously shown that IGF-I is required to permit estrogen and progesterone action in the mammary gland. […] Menopausal symptoms would not likely to occur with SOM230 since estrogen is not lowered. Material and Methods: We have approached this issue in several ways. 1) We developed a model of hyperplasia in hypophysectomized and oophorectomized female rats. Hyperplasia was induced by treatment with 600 mcg hGH and follicular phase concentrations of estradiol. Hyperplasia was assessed histologically in sections of mammary gland. 2) To assess translatability to humans we assessed cell proliferation and apoptosis in normal human breast from reduction mammoplasties and samples of usual hyperplasia. 3) We also determined availability of SST receptors in samples of atypical ductal hyperplasia and DCIS, and 4) We have begun to determine whether SOM230 will prevent hyperplasia in humans at risk for breast cancer as it does in rats.
# The degree of hyperplasia was analyzed in 3 histological sections at different levels in 3 test animals given GH+E2. The different types of hyperplasia were counted. For example, the total mean number of ducts was 88.3. Of those ducts, there were 19.7 or 22.3% of total ducts that were hyperplastic. The breakdown was a mean of 10 ducts with florid hyperplasia (lumen is distended and mostly obliterated by epithelial cells), a mean of 5.3 ducts with moderate hyperplasia (an increase in cell layers to >4 cells thick), and a mean of 4.4 characterized as mild hyperplasia (no more than 4 cell thickness).
# There were 4 additional treatment groups and one E2 treated control group.
# [2] = test system: hGH induced TEB formation; assay: Hyperplastic terminal endbuds (TEBs) in mammary gland whole mounts, hGH+E2 model; type: in vivo, rat; conditions: for TEB area: Table 2, mean of 3 animals, hGH + E control 43.1 ± 2.9, P 0.002
# Excerpt: At the end of 7 days one lumbar mammary gland was removed for whole mount analysis and the other for histological analysis. Hyperplastic TEBs were counted in the whole mounts. […] Representative photomicrographs of the whole mounts are provided in FIG. 5 and suppression by the different treatments is shown graphically in FIG. 6.
# VEGF = VEGF immunostaining in mammary glands of normally developing rats; type: in vivo, rat; conditions: 28 day old rats treated from day 21; gland cells and mast cells
# Excerpt: (§1) They were found in both gland cells and mast cells.
# Factor VIII = Factor VIII immunostaining in mammary glands of normally developing rats; type: in vivo, rat; conditions: 28 day old rats treated from day 21; gland cells and mast cells
# Excerpt: as §1
# SSTR-5 = SSTR-5 (Homo sapiens, UniProt P35346); conditions: cited from earlier work
# mammary development = conditions: rats; Ruan et al (2006); cited from earlier work
# SSTR-5, sequence (P35346 whole entry, species assumed): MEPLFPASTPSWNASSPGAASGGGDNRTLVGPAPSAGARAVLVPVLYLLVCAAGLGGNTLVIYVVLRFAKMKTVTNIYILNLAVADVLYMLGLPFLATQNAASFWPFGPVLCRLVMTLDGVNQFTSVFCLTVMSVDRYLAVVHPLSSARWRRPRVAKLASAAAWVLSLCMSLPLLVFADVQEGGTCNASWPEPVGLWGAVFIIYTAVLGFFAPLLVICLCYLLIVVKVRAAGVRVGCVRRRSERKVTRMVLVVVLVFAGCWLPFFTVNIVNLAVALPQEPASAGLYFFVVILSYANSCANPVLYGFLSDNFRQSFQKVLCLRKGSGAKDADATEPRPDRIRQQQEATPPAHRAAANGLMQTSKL
structure (smiles),measurement,setting,value
NCCCC[C@@H]1NC(=O)[C@@H](Cc2c[nH]c3ccccc23)NC(=O)[C@H](c2ccccc2)NC(=O)[C@@H]2C[C@@H](OC(=O)NCCN)CN2C(=O)[C@H](Cc2ccccc2)NC(=O)[C@H](Cc2ccc(OCc3ccccc3)cc2)NC1=O [SOM230] (cyclo([Hyp]([CO-Ethylenediamine])[Phg][dW]KY(Bn)F)),number of areas of florid hyperplasia,"[1]; Example 3, from 18.9±1.3 with hGH and E2 (p<0.001)",7.5±0.5
same,Mild# (mild hyperplasia),"[1]; Table 1, 7 days",3.0±0.4
same,Mild# (mild hyperplasia),"[1]; Table 1, 7 days, listed as SOM",3.0 ± 0.4
same,Moderate# (moderate hyperplasia),"[1]; Table 1, 7 days",3.8±0.4
same,Moderate# (moderate hyperplasia),"[1]; Table 1, 7 days, listed as SOM",3.8 ± 0.4
same,Florid# (florid hyperplasia),"[1]; Table 1, 7 days",0.8±0.2
same,Florid# (florid hyperplasia),"[1]; Table 1, 7 days, listed as SOM",0.8 ± 0.2
same,DH# (hyperplastic structures),"[1]; Table 1, 7 days, GH + E2 control 18.9 ± 1.3, E2 1.9 ± 0.2",7.5 ± 0.5^b
same,Total# (total number of glands),[1]; Table 1,46.0±2.8
same,Total# (total number of glands),"[1]; Table 1, listed as SOM",46.0 ± 2.8
same,Total#,"[1]; Table 3, SOM230 30 mcg/h/kg, Octreotide 30 mcg/hr/kg, Tamoxifen 30 mg/21 day release pellet, GH + E2 control 88.3 ± 6.3",61.4 ± 7.0
same,Mild#,"[1]; Table 3, same doses, GH + E2 control 4.4 ± 0.6",3.3 ± 0.3
same,Moderate#,"[1]; Table 3, same doses, GH + E2 control 5.3 ± 0.6",3.8 ± 0.4
same,Florid#,"[1]; Table 3, same doses",1.7
same,Florid#,"[1]; Table 3, same doses, listed as SOM",1.7 ± 0.6
same,DH#,"[1]; Table 3, same doses, GH + E2 control 19.7 ± 1.5",8.8 ± 0.7^b
same,hyperplasia / breast hyperplastic lesions (in words),"[1]; given together with hGH and estradiol, 7 days",hyperplasia was significantly inhibited; also recorded: reduction in the number and size of breast hyperplastic lesions; also recorded: reduction in hyperplasia
same,"TEB area, individual animals","[2]; Table 2, animal # 1-3, hGH + E controls 48549, 38496, 42285, listed as SOM",18816 and 13652 and 15356
same,TEB area,[2],reduced
same,TEB area,[2]; listed as SOM,15.9 ± 1.5 (μm^2) × 10^3
same,number of hyperplastic TEBs in whole mounts,"[2]; hGH+E2, 7 days, reduced from 86.5 (86) TEBs in hGH+E2 control",27.5
same,expression of VEGF (immunostaining),VEGF,reduced expression
same,expression of Factor VIII (immunostaining),Factor VIII,reduced expression
same,affinity for SSTR-5,SSTR-5,has affinity
same,IRS-1 phosphorylation in the mammary gland,mammary development,reduction in IRS-1 phosphorylation
same,mammary development,mammary development,prevents mammary development
